The target in the test is KRAS (aa 1-169) G12C, C51S, C80L, C118S (Homo sapiens (Human), UniProt P01116, C118S/C51S/C80L/G12C). Description: Biochemical functional assay: SOS1-mediated nucleotide exchange of GDP-loaded KRAS G12C, binding to GST-cRaf RBD, FRET readout. Conditions: 3 hrs pre-incubation with compound at 24° C., SOS1, GTPyS, inhibition of nucleotide exchange. The method, then: Biochemical Functional Assay
The KRAS (aa 1-169) G12C, C51S, C80L, C118S with a His-tag was expressed, purified and loaded with GDP in house. All protein and substrate solutions were prepared in assay buffer containing 25 mM HEPES pH7.5, 10 mM MgCl2, and 0.01% Triton X-100. Purified GDP-loaded KRAS (aa 1-169) G12C, C51S, C80L, C118S protein was pre-incubated with a serially diluted compound at 24° C. for 3 hrs. Purified SOS1 (aa 564-1049) protein, GTPyS (Sigma) and GST-cRaf RBD (aa 1-149) were then added to each well and incubated at 24° C. for additional 3 hrs. […] Following the incubation, Mab Anti-6HIS-T cryptate (Cisbio) and Mab Anti GST-XL665 (Cisbio) were added and further incubated at 24° C. for 3 hrs. The binding interaction between active GTPyS KRAS G12C and GST-cRaf RBD brings the Tb and XL665 into close proximity enabling an increased FRET signal (Ex337 nm, Em665 nm/620 nm). The inhibition percentage of nucleotide exchange reaction in presence of increasing concentrations of compounds was calculated based on the ratio of fluorescence at 665 nm to that at 620 nm detected on a BMG PHERAstar FSX instrument. The IC50 value of each compound was calculated from fitting the data to the four-parameter logistic model by Dotmatics.

Sequence of KRAS (aa 1-169) G12C, C51S, C80L, C118S (P01116 other isoform, or with tags, fused parts or gaps G12C/C51S/C80L/C118S): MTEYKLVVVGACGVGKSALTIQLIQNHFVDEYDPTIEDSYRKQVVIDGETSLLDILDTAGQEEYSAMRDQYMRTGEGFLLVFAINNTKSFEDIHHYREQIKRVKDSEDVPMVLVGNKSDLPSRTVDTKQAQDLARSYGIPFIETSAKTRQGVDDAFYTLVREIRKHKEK

For orientation: IC50 means the point on the concentration scale where inhibition reaches its midpoint. On to `C=C(F)C(=O)N1CCN(c2nc(OCC3C[C@@H](OC)CN3C)nc3cc(-c4cccc5cccc(Cl)c45)c4c(c23)OCCC4)C[C@@H]1CC#N` (mixture of isomers) [Compound B93, 2-((2S)-4-(5-(8-chloronaphthalen-1-yl)-8-(((4R)-4-methoxy-1-methylpyrrolidin-2-yl)methoxy)-3,4-dihydro-2H-pyrano[2,3-f]quinazolin-10-yl)-1-(2-fluoroacryloyl)piperazin-2-yl)acetonitrile], for which the IC50 is 11 nM.
Next, `C=CC(=O)N1CCN(c2ncnc3cc(-c4c(Cl)ccc5[nH]ncc45)c4c(c23)OCCC4)C[C@@H]1CC#N` (single isomer, unassigned) [Compound A14]: 79.4 nM; `C=CC(=O)N1CCN(c2ncnc3cc(-c4c(Cl)ccc5[nH]ncc45)c4c(c23)OCCC4)C[C@@H]1CC#N` (single isomer, unassigned) [Compound A15]: 92.6 nM; `C=C(F)C(=O)N1CCN(c2nc(OC[C@@H]3CCCN3C)nc3cc(-c4cccc5cccc(Cl)c45)c4c(c23)OCCC4)C[C@@H]1CC#N` (single isomer, unassigned) [Compound B67]: 4.6 nM.
With `C=C(F)C(=O)N1CCN(c2nc(OC[C@@H]3CCCN3C)nc3cc(-c4cccc5cccc(Cl)c45)c4c(c23)OCCC4)C[C@@H]1CC#N` (single isomer, unassigned) [Compound B68], the IC50 came out at 177 nM.
For the molecule `C=C(F)C(=O)N1CCN(c2nc(N3CC(CC#N)(N(C)C)C3)nc3cc(-c4cccc5cccc(Cl)c45)c4c(c23)OCCC4)C[C@@H]1CC#N` (single isomer, unassigned) [Compound B91], the IC50 was found to be 15 nM.
In the case of `C=C(F)C(=O)N1CCN(c2nc(N3CC(CC#N)(N(C)C)C3)nc3cc(-c4cccc5cccc(Cl)c45)c4c(c23)OCCC4)C[C@@H]1CC#N` (single isomer, unassigned) [Compound B92], the IC50 was found to be 381 nM.
Next, `C=C(F)C(=O)N1CCN(c2nc(OCC3C[C@@H](OC)CN3C)nc3cc(-c4cccc5cccc(Cl)c45)c4c(c23)OCCC4)C[C@@H]1CC#N` (single isomer, unassigned) [Compound B94]: 4.63 nM; `C=C(F)C(=O)N1CCN(c2nc(OCC3C[C@@H](OC)CN3C)nc3cc(-c4cccc5cccc(Cl)c45)c4c(c23)OCCC4)C[C@@H]1CC#N` (single isomer, unassigned) [Compound B95]: 11.5 nM; `C=C(F)C(=O)N1CCN(c2nc(OCC3C[C@@H](OC)CN3C)nc3cc(-c4cccc5cccc(Cl)c45)c4c(c23)OCCC4)C[C@@H]1CC#N` (single isomer, unassigned) [Compound B96]: 140 nM.
In the case of `C=C(F)C(=O)N1CCN(c2nc(OCC3C[C@@H](OC)CN3C)nc3cc(-c4cccc5cccc(Cl)c45)c4c(c23)OCCC4)C[C@@H]1CC#N` (single isomer, unassigned) [Compound B97], the IC50 came to 508 nM.
For the molecule `C=C(F)C(=O)N1CCN(c2nc(N3CC(N(C)C)C3)nc3cc(-c4cccc5cccc(Cl)c45)c4c(c23)OCCC4)C[C@@H]1CC#N` (single isomer, unassigned) [Compound B101], the IC50 worked out at 6.53 nM.
In the case of `C=C(F)C(=O)N1CCN(c2nc(N3CC(N(C)C)C3)nc3cc(-c4cccc5cccc(Cl)c45)c4c(c23)OCCC4)C[C@@H]1CC#N` (single isomer, unassigned) [Compound B102], the IC50 came to 354 nM.
Consider `C=C(F)C(=O)N1CCN(c2nc(OC[C@H]3CCCN3C)nc3cc(-c4cccc5cccc(Cl)c45)c4c(c23)OCCC4)C[C@@H]1CC#N` (single isomer, unassigned) [Compound B104], for which the IC50 was 8.16 nM.
The value for `C=C(F)C(=O)N1CCN(c2nc(OC[C@H]3CCCN3C)nc3cc(-c4cccc5cccc(Cl)c45)c4c(c23)OCCC4)C[C@@H]1CC#N` (single isomer, unassigned) [Compound B105] was 290 nM.
The value for `C=C(F)C(=O)N1CCN(c2nc(OC[C@H]3C[C@@H](OC)CN3C)nc3cc(-c4cccc5cccc(Cl)c45)c4c(c23)OCCC4)C[C@@H]1CC#N` (single isomer, unassigned) [Compound B106] was 9.54 nM; that for `C=C(F)C(=O)N1CCN(c2nc(OC[C@H]3C[C@@H](OC)CN3C)nc3cc(-c4cccc5cccc(Cl)c45)c4c(c23)OCCC4)C[C@@H]1CC#N` (single isomer, unassigned) [Compound B107] was 3.26 nM; that for `C=C(F)C(=O)N1CCN(c2nc(OC[C@@H]3CCCN3C)nc3cc(-c4c(Cl)c(C)cc5[nH]ncc45)c4c(c23)OCCC4)C[C@@H]1CC#N` (single isomer, unassigned; atropisomer1) [Compound B12] was 4.6 nM.
Consider `C=C(F)C(=O)N1CCN(c2nc(OC[C@@H]3CCCN3C)nc3cc(-c4c(Cl)c(C)cc5[nH]ncc45)c4c(c23)OCCC4)C[C@@H]1CC#N` (single isomer, unassigned; atropisomer 2) [Compound B13], for which the half-maximal inhibitory concentration (IC50) worked out at 325 nM.
On to `C=CC(=O)N1CCN(c2ncnc3cc(-c4cccc5ccccc45)c4c(c23)OC(C)(C)CC4)CC1` [Compound A1, 1-(4-(2,2-dimethyl-5-(naphthalen-1-yl)-3,4-dihydro-2H-pyrano[2,3-f]quinazolin-10-yl)piperazin-1-yl)prop-2-en-1-one], for which the IC50 came out at 5500 nM.
Regarding `C=CC(=O)N1CCN(c2ncnc3cc(-c4c(O)cccc4F)c4c(c23)OC(C)(C)CC4)CC1` [Compound A2, 1-(4-(5-(2-fluoro-6-hydroxyphenyl)-2,2-dimethyl-3,4-dihydro-2H-pyrano[2,3-f]quinazolin-10-yl)piperazin-1-yl)prop-2-en-1-one], the IC50 amounted to 2120 nM.
Consider `C=CC(=O)N1CCN(c2ncnc3cc(-c4c(O)cccc4F)c4c(c23)OC(C)(C)CC4)C[C@@H]1CC#N` [Compound A3, 2-((2S)-1-acryloyl-4-(5-(2-fluoro-6-hydroxyphenyl)-2,2-dimethyl-3,4-dihydro-2H-pyrano[2,3-f]quinazolin-10-yl)piperazin-2-yl)acetonitrile], for which the IC50 was 559 nM.
On to `C=CC(=O)N1CCN(c2ncnc3cc(-c4c(O)cccc4F)c4c(c23)OCCC4)C[C@@H]1CC#N` [Compound A4, 2-((2S)-1-acryloyl-4-(5-(2-fluoro-6-hydroxyphenyl)-3,4-dihydro-2H-pyrano[2,3-f]quinazolin-10-yl)piperazin-2-yl)acetonitrile], for which the IC50 was found to be 89.6 nM.
On to `C=CC(=O)N1CC2(CCN(c3ncnc4cc(-c5c(O)cccc5F)c5c(c34)OCCC5)CC2)C1` [Compound A5, 1-(7-(5-(2-fluoro-6-hydroxyphenyl)-3,4-dihydro-2H-pyrano[2,3-f]quinazolin-10-yl)-2,7-diazaspiro[3.5]nonan-2-yl)prop-2-en-1-one], for which the IC50 is 1690 nM.
Next, `C=CC(=O)N1CC2CN(c3ncnc4cc(-c5c(O)cccc5F)c5c(c34)OC(C)(C)CC5)CC2C1` (stereo not shown) [Compound A6, 1-(5-(5-(2-fluoro-6-hydroxyphenyl)-2,2-dimethyl-3,4-dihydro-2H-pyrano[2,3-f]quinazolin-10-yl)hexahydropyrrolo[3,4-c]pyrrol-2(1H)-yl)prop-2-en-1-one]: 3540 nM.
In the case of `C=CC(=O)N1CCN(c2ncnc3cc(-c4cccc5ccccc45)c4c(c23)OCCC4)C[C@@H]1CC#N` [Compound A7, (S)-2-(1-acryloyl-4-(5-(naphthalen-1-yl)-3,4-dihydro-2H-pyrano[2,3-f]quinazolin-10-yl)piperazin-2-yl)acetonitrile], the IC50 was 43.1 nM.
`C=CC(=O)N1CCN(c2ncnc3cc(-c4cccc5ccccc45)c4c(c23)OCC=C4)C[C@@H]1CC#N` [Compound A8, (S)-2-(1-acryloyl-4-(5-(naphthalen-1-yl)-2H-pyrano[2,3-f]quinazolin-10-yl)piperazin-2-yl)acetonitrile]: the IC50 stood at 82.1 nM.
Turning to `C=CC(=O)N1CCN(c2ncnc3cc(-c4c(C)ccc5[nH]ncc45)c4c(c23)OCC=C4)C[C@@H]1CC#N` [Compound A9, 2-((2S)-1-acryloyl-4-(5-(5-methyl-1H-indazol-4-yl)-2H-pyrano[2,3-f]quinazolin-10-yl)piperazin-2-yl)acetonitrile], the IC50 came out at 218 nM.
Consider `C=CC(=O)N1CCN(c2ncnc3cc(-c4c(C)ccc5[nH]ncc45)c4c(c23)OCCC4)C[C@@H]1CC#N` [Compound A10, 2-((2S)-1-acryloyl-4-(5-(5-methyl-1H-indazol-4-yl)-3,4-dihydro-2H-pyrano[2,3-f]quinazolin-10-yl)piperazin-2-yl)acetonitrile], for which the IC50 came out at 598 nM.
The value for `C=CC(=O)N1CCN(c2ncnc3cc(-c4cc(C)cc5[nH]ncc45)c4c(c23)OCCC4)C[C@@H]1CC#N` [Compound A11, (S)-2-(1-acryloyl-4-(5-(6-methyl-1H-indazol-4-yl)-3,4-dihydro-2H-pyrano[2,3-f]quinazolin-10-yl)piperazin-2-yl)acetonitrile] was 799 nM.
As for `C=CC(=O)N1CCN(c2ncnc3cc(-c4cccc5ccccc45)c4c(c23)OCCC4)CC1` [Compound A12, 1-(4-(5-(naphthalen-1-yl)-3,4-dihydro-2H-pyrano[2,3-f]quinazolin-10-yl)piperazin-1-yl)prop-2-en-1-one], the IC50 was 1660 nM.

The record behind these values is patent US20240166660A1, “KRAS G12C INHIBITORS” (BeiGene Switzerland GmbH, priority 2021, published 2024).
